Measured values from patent US20060084599A1, “Compositions, methods and kits relating to notch signaling” (Maine Medical Center, priority 2003, published 2006).
Marks after values point to notes of the source that are not given here.

Assays:
[1] = test system: NCSC populations; experiment: Clonogenic differentiation assay of NCSC: ligand pre-incubation, then BMP2 challenge; assay type: cell-based, mouse; conditions: then 1 ng/ml BMP2 seven days, mean ± SD
Experimental: Clonogenic assays were performed as described (Stemple et al., 1992, Cell 71:973-985). Briefly, populations of murine NCSC were plated at a clonal density and maintained for a maximum of 14 days in Morrison media supplemented with 15% chick embryo extract (Morrison et al., 1999, Cell 96:737-749). The resulting clones were fixed in an acetic acid:ethanol solution (2:1) and stained with antibodies against peripherin (Chemicon) to detect neurons, smooth muscle actin (Sigma) to detect myofibroblasts, and GFAP (Chemicon) to detect Schwann cells. Clones were scored based on the appearance of just one phenotypic representative. The number and percentage of clones containing neurons only (N), Schwann cells only (S), myofibroblasts only (M), N+S, N+M, N+S+M, and S+M were scored at day 14 unless otherwise stated. The production of each representative phenotype in each individual clone was also scored to complement the clonal population assay.
NCSC Retain Neurogenic capacity in the presence of sJ1. A clonogenic differentiation assay was performed using mouse NSCS populations as described previously (Kubu et al., 2002, Dev. Biol. 244:199-214; Stemple et al., 1992, Cell 71:973-985). The cells were incubated in Stemple media (Stemple et al., 1992) with or without 5 nM sDl1 or 7.5 nM sJ1 for the time periods set forth in Table 1. After the initial incubation period, cells were washed and neuronal differentiation was challenged in the presence of 1 ng/ml BMP2 for an additional seven days. The resulting clones were fixed and stained for detection of neural crest markers. The data disclosed in Table 1 is presented as the percentage of glial-only, neuron-only, and neuron colonies containing either smooth muscle or glial markers as the mean ± standard deviation (SD) of three experiments originating from three independent cell isolations. Note the retention of neurogenic differentiation capacity in sJ1-treated cells (*=p<0.01) compared with the sDl1-treated cells.

[2] = test system: FGF1R136K NIH 3T3 cell transfectants; experiment: Thrombin stimulation and immunoblot analysis of FGF1 release; assay type: cell-based, murine
Experimental: FGF1R136K NIH 3T3 cell transfectants or adenovirally-transduced NIH 3T3 cells were washed with DMEM containing 5 units/ml of heparin (Sigma) and stimulated with either 10 μg/ml α-thrombin (a gift from Dr. J. Fenton) or 5 μM TRAP (Sigma) at 37° C. for different periods of time. Control cells were incubated in the absence of thrombin for the same time period. Conditioned media were collected at each time period, filtered, and concentrated as previously described (Jackson et al., 1992, Proc. Natl. Acad. Sci. U.S.A. 89:10691-10695). The concentrates were resolved by SDS-PAGE and subjected to immunoblot analysis using a rabbit antibody against either FGF1 (Jackson et al., 1992), Syt1 (LaVallee et al., 1998, J. Biol. Chem. 273:22217-22223) or Myc (Oncogene). The heat shock-induced release of FGF1 was performed at 42° C. for 110 minutes as previously described (Jackson et al., 1992). Cell viability was assessed by measuring lactate dehydrogenase activity in the conditioned medium after filtration as disclosed previously elsewhere herein (published as Mandinova et al., 2003, J. Cell Sci. 116:2687-2696), and total cell lysates were obtained and processed for immunoblot analysis as described (Landriscina et al., 2001, J. Biol. Chem. 276:22544-22552).
Stable FGF1R136K NIH 3T3 cell transfectants were pre-incubated with either 100 ng/ml pertussis toxin (PTX) or 10 ng/ml cholera toxin (CT) for 60 minutes at 37° C. in DMEM containing 10% BCS. After pre-incubation, the cells were washed, stimulated with 10 μg/ml of thrombin for different periods of time in the presence of either 100 ng/ml PTX or 10 ng/ml CT, conditioned medium collected, and subjected to immunoblot analysis as described above.

[3] = test system: NIH 3T3 cells; experiment: Cell migration (scratch) assay; assay type: cell-based, mouse; conditions: stable NIH 3T3 cell transfectants expressing the ligand
Experimental: Cell Migration Assay. Approximately 10^5 Sj1 or sDl1 NIH 3T3 cells were plated in 6-well plastic plates (Falcon) DMEM supplemented with 10% (w/v) bovine calf serum (BCS; Hyclone) and after the cells reached approximately 60-70% confluence, the cell monolayer was scratched using a plastic cell scraper. Photomicrographs were taken immediately after the injury and 24 hours and 48 hours later.

[4] = test system: CBF1-responsive promoter; experiment: Dual luciferase assay of CSL-dependent transcription (Example 3); assay type: cell-based, mouse; conditions: NIH 3T3 cells and N1IC NIH 3T3 cells expressing the ligand
Experimental: Dual Luciferase Assay. CSL-dependent transcription was quantitated as previously described (Small et al., 2001, J. Biol. Chem. 276:32022-32030; Small et al., 2003, J. Biol. Chem. 278:16405-16413). Briefly, approximately 5×10^4 cells representing insert-less vector control, sDl1, sJ1, dominant-negative Notch1 (dnN1), dominant-negative Notch2 (dnN2) (Small et al., 2001, J. Biol. Chem. 276:32022-32030), sDl1/dnSrc and sJ1/dnSrc stable NIH 3T3 cell transfectants were plated on 12-well plastic plates (Falcon) coated with fibronectin (10 μg/cm^2). The cells were transiently transfected at 60% confluence with 500 ng of the CBF1-responsive Luciferase construct (Small et al., 2001, J. Biol. Chem. 276:32022-32030) and 100 ng of a Renilla SV40 construct (Promega) which was utilized as an internal control for transfection efficiency. Gene Juice (Novagen) was used as a transfection reagent. Some of the samples also contained 200 ng of a DNA construct encoding the truncated intracellular constitutively active form of Notch1 (N1IC) (Small et al., 2001, J. Biol. Chem. 276:32022-32030). […] Individual assays were performed in triplicate and the Luciferase/Renilla activity was measured using Dual-Luciferase Reporter Assay System (Promega) 48 hrs following the transient transfection.

[5] = 5 nM sDl1 or 7.5 nM sJ1 for 24 hrs

“sJ1: Soluble Jagged1, amino acid residues about 1 to 1067 (SEQ ID NO:3) of full-length human Jagged1” was tested, and the Glial-Only colonies [1, 5] was 0%, the Neuron-Containing colonies [1, 5] was 71.4 ± 6.2%* and the Neuron-Only colonies [1, 5] was 54.4 ± 8.4%*. It also gave a Glial-Only colonies ([1]; 7.5 nM sJ1 for 72 hrs) of 0.8 ± 1.4%*, a Neuron-Containing colonies ([1]; 7.5 nM sJ1 for 72 hrs) of 74.8 ± 16.3%* and a Neuron-Only colonies ([1]; 7.5 nM sJ1 for 72 hrs) of 42.8 ± 6.6%*. The Glial-Only colonies ([1]; 7.5 nM sJ1 for 120 hrs) was 5.82 ± 3.4%*, the Neuron-Containing colonies ([1]; 7.5 nM sJ1 for 120 hrs) was 52.01 ± 14.1%* and the Neuron-Only colonies ([1]; 7.5 nM sJ1 for 120 hrs) was 13.43 ± 6.5%*. It also gave a Glial-Only colonies ([1]; 7.5 nM sJ1 for 168 hrs) of 13.3 ± 4.5%*, a Neuron-Containing colonies ([1]; 7.5 nM sJ1 for 168 hrs) of 35.03 ± 9.1% and a Neuron-Only colonies ([1]; 7.5 nM sJ1 for 168 hrs) of 6.5 ± 1.3%*. For the same molecule, the “time after which detectable extracellular FGF-1 was present” value ([2]; 37° C.) was 5 min, the migratory behavior [3] was “exhibited a decrease in their migratory potential” and the “transactivation of the CBF1-responsive promoter” value [4] was “inhibited the transactivation of the CBF1-responsive promoter”.

thrombin was tested, and the “export of FGF2” value [2] was “unable to induce the export of FGF2”, the “thrombin concentration giving maximal release of FGF1R136K” value ([2]; 37° C.) was 10 µg/mL and the “time after which detectable extracellular FGF-1 was present” value ([2]; 37° C.) was 5 min. The “release of FGF1R136K into the extracellular compartment” value ([2]; 37° C., 10 μg/ml α-thrombin or 5 μM TRAP) was “rapid and sustained appearance of the FGF1R136K mutant in the extracellular compartment”, the “release of FGF1R136K from cells transduced with constitutively active Notch1” value ([2]; caN1-transduced FGF1R136K NIH 3T3 cells) was “unable to initiate the release of the FGF1R136K mutant” and the “release of S100A13” value ([2]; cells co-expressing S100A13 and FGF1R136K, 37° C.) was “presence of S100A13 in the extracellular compartment with kinetics similar to that observed with FGF1”. The “release of p40 Syt1” value ([2]; p40 Syt1-transduced FGF1R136K NIH 3T3 cells) was “presence of p40 Syt1in the extracellular compartment”.

B1: sDl1: soluble non-transmembrane form (extracellular domain) of the Notch ligand Delta1 (protein)
chain: QVWSSGVFELKLQEFVNKKGLLGNRNCCRGGAGPPPCACRTFFRVCLKHYQASVSPEPPCTYGSAVTPVLGVDSFSLPDGGGADSAFSNPIRFPFGFTWPGTFSLIIEALHTDSPDDLATENPERLISRLATQRHLTVGEEWSQDLHSSGRTDLKYSYRFVCDEHYYGEGCSVFCRPRDDAFGHFTCGERGEKVCNPGWKGPYCTEPICLPGCDEQHGFCDKPGECKCRVGWQGRYCDECIRYPGCLHGTCQQPWQCNCQEGWGGLFCNQDLNYCTHHKPCKNGATCTNTGQGSYTCSCRPGYTGATCELGIDECDPSPCKNGGSCTDLENSYSCTCPPGFYGKICELSAMTCADGPCFNGGRCSDSPDGGYSCRCPVGYSGFNCEKKIDYCSSSPCSNGAKCVDLGDAYLCRCQAGFSGRHCDDNVDDCASSPCANGGTCRDGVNDFSCTCPPGYTGRNCSAPVSRCEHAPCHNGATCHERGHRYVCECARGYGGPNCQFLLPELPPGPAVVDLTEKLEGQGGPFPW
modifications: left off: small tags and cut ends
notes: soluble non-transmembrane form (extracellular domain) of the Notch ligand Delta1
With B1 the Glial-Only colonies [1, 5] was 57.8 ± 9.9%, the Neuron-Containing colonies [1, 5] was 7.0 ± 5.7% and the Neuron-Only colonies [1, 5] was 0%. For the same molecule, the migratory behavior [3] was “displayed normal motility” and the “transactivation of the CBF1-responsive promoter” value [4] was “inhibited the transactivation of the CBF1-responsive promoter”.
